{"source": "patent US20100029577A1", "about": "“Chiral separation, characterization and biological action of optically active isomers of digoxin” (priority 2008, published 2010)", "key": {"[1]": {"system": "digitoxin serum protein binding", "experiment": "In vitro drug studies: ability to induce changes in digitoxin serum protein binding", "conditions": "procainamide 5 mg/ml, phenytoin 50 mg/ml, heparin 5 IU/ml, rifampicillin 4.5 μg/ml", "experimental": "Digoxin isolates will be used under similar conditions.\nThe ability to induce changes in digitoxin serum protein binding was tested for the following drugs: procainamide (5 mg/ml), phenytoin (50 mg/ml), heparin (5 IU/ml), and rifampicillin (4.5 μg/ml). […] Identical procedures will be used for digoxin isolates."}, "serum protein [2]": {"system": "serum protein", "experiment": "Free fraction of digitoxin by centrifugation", "type": "in vitro ADME", "experimental": "Free fraction of digitoxin increased with centrifugation time from 18% at 10 minutes to 37% at 80 minutes (500 g) without reaching plateau levels."}, "serum protein [3]": {"system": "serum protein", "experiment": "Digitoxin serum protein binding by equilibrium dialysis", "type": "in vitro ADME, patients", "experimental": "Digitoxin protein binding was dependent on albumin content. […] Chamber equilibrium dialysis gave similar results. […] (mean, 96.7%) and at 37° C. (mean, 96.9%). Digoxin isolates will be used under similar conditions."}, "[4]": {"system": "gram-negative and gram-positive bacteria", "conditions": "against both gram-negative and gram-positive bacteria; cited from earlier work"}, "[5]": {"system": "AV node conduction and cardiac contractibility", "experiment": "Effect on PR interval (AV node conduction) and cardiac contractibility in anesthetized guinea pig, continuous IV infusion", "type": "in vivo", "conditions": "infused at 6 μg/kg/min continuously IV", "experimental": "The guinea pig or rat is anesthetized with pentobarbital at 40 mg/kg IP, then-connected to an EKG recorder. The animal is then placed on a small animal respirator. Aseptic surgical instruments are soaked in ethanol and then flamed. An incision is made in the chest wall to open the chest. A Walton Brody stain gauge arch is sutured to the right ventricle to measure contractile changes. The refractoriness of the AV node is determined by measuring the PR-interval on the surface EKG. Graphs can be created from the data displaying the dose related change in the PR interval to the dose related contractile augmentation. Digoxin or chiral isolates are infused through the jugular vein at concentrations (from 0.1 μM and then to 10 μM) at a constant rate by infusion pump, to determine the differential effects on the AV node and cardiac contractibility. The infusions are continued to a 50% level augmentation in contractibility or the development of ventricular tachycardia. To maintain a consistent level of anesthesia, pentobarbital 20 mg/kg IP or 10 mg/kg IV for more immediate action at 30-minute intervals may be administered.\nThe effect of digoxin and one of the two chiral isomers was evaluated in the guinea pig. Guinea pigs were anesthetized with pentobarbital. […] An EKG was continuously recorded. Conduction through the AV node was determined by measuring the PR interval on the surface EKG. […]"}}}
{"compound": "CCN(CC)CCNC(=O)c1ccc(N)cc1", "note": "[procainamide]", "values": [{"measurement": "changes in the serum protein binding of digitoxin", "setting": "[1]", "result": "None of these induced significant changes"}]}
{"compound": "O=C1NC(=O)C(c2ccccc2)(c2ccccc2)N1", "note": "[phenytoin]", "values": [{"measurement": "changes in the serum protein binding of digitoxin", "setting": "[1]", "result": "None of these induced significant changes"}]}
{"compound": "C[C@H]1O[C@@H](O[C@H]2[C@@H](O)C[C@H](O[C@H]3[C@@H](O)C[C@H](O[C@H]4CC[C@@]5(C)[C@H](CC[C@@H]6[C@@H]5CC[C@]5(C)[C@@H](C7=CC(=O)OC7)CC[C@]65O)C4)O[C@@H]3C)O[C@@H]2C)C[C@H](O)[C@@H]1O", "note": "[digitoxin]", "values": [{"measurement": "free fraction", "setting": "serum protein [2]; centrifugation 10 minutes, 500 g", "result": 18, "unit": "%"}, {"measurement": "free fraction", "setting": "serum protein [2]; centrifugation 60 minutes, 135 g", "result": 5.9, "unit": "%"}, {"measurement": "free fraction", "setting": "serum protein [2]; centrifugation 60 minutes, 560 g", "result": 15.7, "unit": "%"}, {"measurement": "free fraction", "setting": "serum protein [2]; centrifugation 80 minutes, 500 g", "result": 37, "unit": "%"}, {"measurement": "digitoxin binding (mean)", "setting": "serum protein [3]; sera from 9 patients dialyzed at 20° C.", "result": 96.7, "unit": "%"}, {"measurement": "digitoxin binding (mean)", "setting": "serum protein [3]; sera from 9 patients dialyzed at 37° C.", "result": 96.9, "unit": "%"}]}
{"compound": "heparin", "values": [{"measurement": "changes in the serum protein binding of digitoxin", "setting": "[1]", "result": "None of these induced significant changes"}]}
{"compound": "CC1COc2c(N3CCN(C)CC3)c(F)cc3c(=O)c(C(=O)O)cn1c23", "note": "(single isomer, unassigned; (-)) [(−)-Ofloxacin]", "values": [{"measurement": "times more active as the racemate", "setting": "[4]", "result": "8-128 times"}]}
{"compound": "rifampicillin", "values": [{"measurement": "changes in the serum protein binding of digitoxin", "setting": "[1]", "result": "None of these induced significant changes"}]}
{"compound": "CC1O[C@@H](O[C@H]2C(O)C[C@H](O[C@H]3C(O)C[C@H](OC4CC[C@@]5(C)[C@H](CC[C@@H]6[C@@H]5C[C@@H](O)[C@]5(C)[C@@H](C7=CC(=O)OC7)CC[C@]65O)C4)OC3C)OC2C)CC(O)[C@@H]1O", "note": "(stereo partly shown) [Digoxin]", "values": [{"measurement": "change in PR interval on the surface EKG", "setting": "[5]", "result": "progressive increase"}, {"measurement": "change in cardiac contractibility as measured by the strain-gauge arch", "setting": "[5]", "result": "increase"}]}
